Assay results published in ChEMBL document CHEMBL5096222, “Discovery of a Trifluoromethoxy Cyclopentanone Benzothiazole Receptor-Interacting Protein Kinase 1 Inhibitor as the Treatment for Alzheimer's Disease” (J Med Chem, 2022).

Experiments:
[1] = target: T1, Receptor-interacting serine/threonine-protein kinase 1 (Homo sapiens, UniProt Q13546); assay: Binding affinity to recombinant human wild type partial length RIPK1 (M1 to K305 residues) expressed in bacterial expression system by KINOMEscan TM assay
T1 sequence (Q13546 whole entry): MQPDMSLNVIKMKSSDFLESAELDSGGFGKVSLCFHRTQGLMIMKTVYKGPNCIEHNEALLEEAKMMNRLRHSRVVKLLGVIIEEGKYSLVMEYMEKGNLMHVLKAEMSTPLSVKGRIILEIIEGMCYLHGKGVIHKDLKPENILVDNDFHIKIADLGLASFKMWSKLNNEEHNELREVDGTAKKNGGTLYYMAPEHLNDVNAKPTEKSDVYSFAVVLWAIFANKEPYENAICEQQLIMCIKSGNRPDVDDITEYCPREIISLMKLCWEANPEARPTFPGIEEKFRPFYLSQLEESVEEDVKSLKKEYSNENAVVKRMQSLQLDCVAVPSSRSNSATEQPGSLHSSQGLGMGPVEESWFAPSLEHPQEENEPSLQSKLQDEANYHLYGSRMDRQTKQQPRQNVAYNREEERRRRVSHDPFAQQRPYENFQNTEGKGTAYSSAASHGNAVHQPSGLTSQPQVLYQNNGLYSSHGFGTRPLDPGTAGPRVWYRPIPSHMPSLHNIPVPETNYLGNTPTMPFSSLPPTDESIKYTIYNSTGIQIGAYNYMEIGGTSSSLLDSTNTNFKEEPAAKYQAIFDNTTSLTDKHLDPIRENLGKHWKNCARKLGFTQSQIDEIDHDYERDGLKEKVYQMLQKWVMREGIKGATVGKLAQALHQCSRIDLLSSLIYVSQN

[2] = Cytotoxicity against human HT-29 cells assessed as reduction in cell viability by celltiter-glo luminescent cell viability assay; assay type: toxicity, cell-based
[3] = target: Receptor-interacting serine/threonine-protein kinase 3 (Homo sapiens, UniProt Q9Y572); assay: Binding affinity to recombinant human wild type partial length RIPK3 (M1 to Q307 residues) expressed in bacterial expression system by KINOMEscan TM assay
HT-29 = assay: Anti-necroptotic activity in TSZ induced human HT-29 cells assessed as increase in cell viability pretreated with compound followed by TSZ stimulation and measured after 16 hrs by celltiter-glo luminescent cell viability assay; assay type: functional, cell-based

Chain of Receptor-interacting serine/threonine-protein kinase 3 (Q9Y572 whole entry, the tested form may be a part): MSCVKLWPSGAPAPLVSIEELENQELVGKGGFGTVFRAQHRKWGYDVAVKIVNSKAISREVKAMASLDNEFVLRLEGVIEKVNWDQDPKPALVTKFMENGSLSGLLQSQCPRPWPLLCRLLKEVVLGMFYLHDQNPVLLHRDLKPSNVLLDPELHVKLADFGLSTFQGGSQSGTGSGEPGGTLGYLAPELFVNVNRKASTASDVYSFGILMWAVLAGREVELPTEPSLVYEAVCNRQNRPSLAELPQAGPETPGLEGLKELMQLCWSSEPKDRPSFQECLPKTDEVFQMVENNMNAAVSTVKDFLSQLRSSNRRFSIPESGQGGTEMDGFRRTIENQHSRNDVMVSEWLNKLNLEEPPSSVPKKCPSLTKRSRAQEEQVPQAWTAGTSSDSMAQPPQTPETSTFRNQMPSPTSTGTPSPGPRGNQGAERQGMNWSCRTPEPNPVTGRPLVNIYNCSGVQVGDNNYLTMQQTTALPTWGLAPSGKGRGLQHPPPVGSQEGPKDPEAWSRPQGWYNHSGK

What does the source list for `O=C(Cc1cccc(OC(F)(F)F)c1)Nc1cc(Oc2cc3nc(NC(=O)C4CCOC4)sc3cc2F)ccc1F` (stereo not given)?
Kd [1]: 12 nM; CC50 [2]: > 50000 nM; Kd [3]: > 5000 nM; EC50 (HT-29): 13 nM

Which results are given for `CC1(C)CC1C(=O)Nc1nc2cc(Oc3ccc(F)c(NC(=O)Cc4cccc(OC(F)(F)F)c4)c3)c(F)cc2s1` (stereo not given)?
Kd [1]: 25 nM; CC50 [2]: > 50000 nM; Kd [3]: > 5000 nM; EC50 (HT-29): 12 nM

Which Kd [1] does the source give for `O=C1CCC(C(=O)Nc2nc3cc(Oc4ccc(F)c(NC(=O)Cc5cccc(OC(F)(F)F)c5)c4)c(F)cc3s2)C1` (stereo not given) here?
The Kd was 9.6 nM.

And the CC50 [2]?
The CC50 was > 50000 nM.

And the Kd [3]?
The Kd was > 5000 nM.

And the EC50 (HT-29)?
The EC50 was 8 nM.

What does the source list for `O=C(Cc1cccc(C(F)(F)F)c1)Nc1cc(Oc2cc3nc(NC(=O)C4CC4)sc3cc2F)ccc1F`?
Kd [1]: 97 nM; CC50 [2]: 36500 nM; Kd [3]: 77 nM; EC50 (HT-29): 170 nM

What does the source list for `O=C1CCC(C(=O)Nc2nc3cc(Oc4ccc(F)c(NC(=O)Cc5cccc(OC(F)(F)F)c5)c4)c(F)cc3s2)CC1`?
Kd [1]: 4.5 nM; CC50 [2]: > 50000 nM; Kd [3]: > 5000 nM; EC50 (HT-29): 10 nM
